From patent US5223508A, “Pyridyl carboximidamide compounds useful in treating blood pressure” (Kirin Beer Kabushiki Kaisha, priority 1992, dated 1993)
pIC50: −log10 of the molar value.

What was measured:
potassium channel [1] = details: literature; cited from earlier work
animal = details: literature; cited from earlier work
potassium channel [2] = test: Potassium channel activating effect (86Rb efflux from rat thoracic aorta); set-up: species or system male Wistar rats; details: 10^-4M, 8 minutes
Experimental: Male Wistar rats (weighing 250-350 g) were dehematized to death, and thoracic aortae were rapidly isolated. The aorta was opened along the longitudinal axis to prepare a flat sheet. The preparation was loaded with ^86 Rb in the Krebs-Ringer solution which contained ^86 Rb in the concentration of 10 μCi/ml and was gassed with 95% O2 -5% CO2 at 37° C. for 2 hours. The preparation was then transferred to a Krebs-Ringer solution not containing ^86 Rb, and washed to remove excess radioactivity for 18 minutes by refreshing the solution every 2 minutes. Finally the preparation was placed into a Krebs-Ringer solution containing each compound (10^-4M) for 8 minutes.
The amount of ^86 Rb efflux from the preparation in each period was determined with a γ-counter.
The increment in efflux rate during the application of the compound was expressed as percent of the efflux before the application of the compound.

isolated rat aortae = test: Vasorelaxing effect on the isolated rat aortae (40 mM KCl contraction); set-up: species or system male Wistar rats; details: inhibition of 40 mM KCl-induced contraction, isolated rat aorta
Experimental: Vasorelaxing effect on the isolated rat aortae
The compounds of the present invention were tested for their physiological activities by measuring the tension of isolated rat aortae isometrically.
Thoracic aortae obtained from male Wistar rats (weighing 250-350 g) were cut into ring segments about 3 mm long. The ring preparation was placed in an organ bath filled with 10 ml of Krebs-Ringer solution that was maintained at 37° C. and gassed with 95% O2 -5% CO2.
The preparation in the organ bath was allowed to equilibrate under resting tension of 1 g. After equilibration period, the solution in the organ bath was replaced with an isotonic solution containing 40 mM KCl to contract the preparation.
After the contraction induced by KCl had reached plateau, the concentration-response relationship for the test compound was determined by means of cumulative addition.
The relaxation response of the test compounds was expressed as the percent inhibition of the contraction induced by KCl, and the IC50 value, which is a concentration required for inhibiting the contraction induced by KCl to an extent of 50%, was calculated by the Probit method from the concentration-response curve.

male ddY mice = test: Effect on hypoxia (survival time); assay type: in vivo; details: oral, 96% N2 -4% O2, mean ± S.E.M.
Experimental: Effect of the compound of the present invention on hypoxia
The effect of the compound of the present invention [test compound: N-cyano-N'-(2-nitroxyethyl)-3-pyridinecarboximidamide (compound (13))] on hypoxia was examined in male ddY mice (4 week old). Mice were exposed to a gas mixture of 96% N2 -4% O2 that was streamed in a flow rate of 5 l/min.
The time from the onset of the gas stream till the stop of respiration [survival time (sec)] was measured.
The test compound was orally administered in the dosage form of a 2% suspension in gum arabic 30 minutes before the onset of the gas streaming. The control group was administered a gum arabic suspension only.

| SMILES | potassium channel activating effect (potassium channel [1]) | effects in animal experiments (animal) | Increment of Efflux (86Rb) (potassium channel [2]) [%] | other results |
| --- | --- | --- | --- | --- |
| CC1(C)Oc2ccc(C#N)cc2[C@@H](N2CCCC2=O)[C@@H]1O (relative stereo) [chromakalim] | potassium channel activating effect | vasodilating effect, antihypertensive effect, coronary blood flow increasing effect, cerebral vasodilative effect and bronchodilatative effect |  |  |
| N#CNC(=NCc1ccccc1)c1cccnc1 [(17), N-cyano-N'-benzyl-3-pyridinecarboximidamide] |  |  | 135.41 |  |
| N#CNC(=NCCc1ccccc1)c1cccnc1 [(27), N-cyano-N'-(2-phenylethyl)-3-pyridinecarboximidamide] |  |  | 206.61 |  |
| COc1ccc(NC(=NC#N)c2cccnc2)c(OC)n1 [(40), N-cyano-N'-3-(2,6-dimethoxypyridine)-3-pyridinecarboximidamide] |  |  |  | pIC50 (isolated rat aortae): 5.00 |
| N#CNC(=NCCO[N+](=O)[O-])c1ccncc1 [(41), N-cyano-N'-(2-nitroxyethyl)-4-pyridinecarboximidamide] |  |  | 126.88 |  |
| N#CNC(=NCCO[N+](=O)[O-])c1cccnc1 [Compound (13), N-cyano-N'-(2-nitroxyethyl)-3-pyridinecarboximidamide] |  |  | 213.53 | Survival Time (male ddY mice; 0.3 mg/kg): 130.27 ± 9.32 s; Survival Time (male ddY mice; 1.0 mg/kg): 201.00 ± 13.40 s; Survival Time (male ddY mice; 3.0 mg/kg): 523.15 ± 48.57 s |
| O=C(NCCO[N+](=O)[O-])c1cccnc1 [Nicorandil, nicorandil] | potassium channel activating effect | vasodilating effect, antihypertensive effect, coronary blood flow increasing effect, cerebral vasodilative effect and bronchodilatative effect |  |  |
| CC(N/C(=N\C#N)Nc1ccncc1)C(C)(C)C (centres unmarked) [pinacidil] | potassium channel activating effect | vasodilating effect, antihypertensive effect, coronary blood flow increasing effect, cerebral vasodilative effect and bronchodilatative effect |  |  |
